Source: ChEMBL document CHEMBL1909046, “DrugMatrix in vitro pharmacology data”

The molecules below were run against D(1A) dopamine receptor (Homo sapiens, UniProt P21728) (assay: DRUGMATRIX: Dopamine D1 radioligand binding (ligand: [3H] SCH-23390)). Conditions: Not Active = under 50% inhibition at 10 µM; read-out: IC50.
Assay type: cell membranes, CHO, Membrane

D(1A) dopamine receptor, sequence (P21728 whole entry): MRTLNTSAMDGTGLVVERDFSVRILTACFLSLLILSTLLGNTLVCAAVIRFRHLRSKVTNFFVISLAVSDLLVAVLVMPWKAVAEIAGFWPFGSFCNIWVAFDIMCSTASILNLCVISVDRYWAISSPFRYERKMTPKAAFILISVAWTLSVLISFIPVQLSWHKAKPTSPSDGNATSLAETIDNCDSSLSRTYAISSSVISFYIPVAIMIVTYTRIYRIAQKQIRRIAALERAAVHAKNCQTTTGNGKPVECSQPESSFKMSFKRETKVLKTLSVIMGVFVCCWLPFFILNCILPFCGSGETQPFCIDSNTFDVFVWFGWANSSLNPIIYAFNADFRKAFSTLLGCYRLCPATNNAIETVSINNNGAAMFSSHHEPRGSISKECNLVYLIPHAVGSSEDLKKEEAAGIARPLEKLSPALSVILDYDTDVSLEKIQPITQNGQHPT

SMILES | IC50
CC(C)C[C@H]1C(=O)N2CCC[C@H]2[C@]2(O)O[C@](NC(=O)[C@@H]3C=C4c5cccc6[nH]cc(c56)C[C@H]4N(C)C3)(C(C)C)C(=O)N12 [ERGOCRYPTINE] | 403 nM
CN1CCC(=C2c3ccccc3CC(=O)c3sccc32)CC1 [KETOTIFEN] | 872 nM

Same assay, conditions: Not Active = under 50% inhibition at 10 µM; read-out: Ki

SMILES | Ki
CC(C)C[C@H]1C(=O)N2CCC[C@H]2[C@]2(O)O[C@](NC(=O)[C@@H]3C=C4c5cccc6[nH]cc(c56)C[C@H]4N(C)C3)(C(C)C)C(=O)N12 [ERGOCRYPTINE] | 202 nM
CN1CCC(=C2c3ccccc3CC(=O)c3sccc32)CC1 [KETOTIFEN] | 436 nM

Same assay, conditions: cho; Not Active = under 50% inhibition at 10 µM

SMILES | IC50
COc1cccc2c1C(=O)c1c(O)c3c(c(O)c1C2=O)C[C@@](O)(C(C)=O)C[C@@H]3O[C@H]1C[C@H](N)[C@H](O)[C@H](C)O1 [DAUNORUBICIN] | Not Active
O=C(O)c1cc(-c2ccc(F)cc2F)ccc1O [DIFLUNISAL] | Not Active
C[S+](C)[O-] [DIMETHYL SULFOXIDE] | Not Active
CC1=NN(c2ccccc2)C(=O)C1 [EDARAVONE] | Not Active
C[C@]12CC[C@@H]3c4ccc(O)cc4CC[C@H]3[C@@H]1C[C@@H](O)[C@@H]2O [ESTRIOL] | Not Active

These molecules were tested against Tyrosine-protein kinase Lck (Homo sapiens, UniProt P06239) (assay: DRUGMATRIX: Protein Tyrosine Kinase, LCK enzyme inhibition (substrate: Poly(Glu:Tyr))). Conditions: insect cells; Not Active = under 50% inhibition at 10 µM.
Tyrosine-protein kinase Lck, sequence (P06239 whole entry): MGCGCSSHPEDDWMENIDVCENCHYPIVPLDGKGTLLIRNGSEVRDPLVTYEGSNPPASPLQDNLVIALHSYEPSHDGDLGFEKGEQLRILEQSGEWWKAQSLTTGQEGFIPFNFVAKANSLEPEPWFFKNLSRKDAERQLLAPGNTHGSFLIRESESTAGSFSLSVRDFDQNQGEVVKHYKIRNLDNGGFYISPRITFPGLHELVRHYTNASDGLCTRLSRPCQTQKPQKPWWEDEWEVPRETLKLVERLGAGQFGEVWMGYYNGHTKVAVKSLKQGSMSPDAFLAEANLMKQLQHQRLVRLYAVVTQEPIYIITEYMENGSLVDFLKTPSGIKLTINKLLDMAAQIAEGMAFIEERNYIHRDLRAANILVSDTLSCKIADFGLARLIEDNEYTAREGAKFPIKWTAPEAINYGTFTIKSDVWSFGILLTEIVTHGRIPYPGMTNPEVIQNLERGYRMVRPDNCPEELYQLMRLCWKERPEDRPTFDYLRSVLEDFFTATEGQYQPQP
Assay type: cell-based, Insect cells

SMILES | IC50
COc1cccc2c1C(=O)c1c(O)c3c(c(O)c1C2=O)C[C@@](O)(C(C)=O)C[C@@H]3O[C@H]1C[C@H](N)[C@H](O)[C@H](C)O1 [DAUNORUBICIN] | Not Active
O=C(O)c1cc(-c2ccc(F)cc2F)ccc1O [DIFLUNISAL] | Not Active
C[S+](C)[O-] [DIMETHYL SULFOXIDE] | Not Active
CC1=NN(c2ccccc2)C(=O)C1 [EDARAVONE] | Not Active
CC(C)C[C@H]1C(=O)N2CCC[C@H]2[C@]2(O)O[C@](NC(=O)[C@@H]3C=C4c5cccc6[nH]cc(c56)C[C@H]4N(C)C3)(C(C)C)C(=O)N12 [ERGOCRYPTINE] | Not Active
C[C@]12CC[C@@H]3c4ccc(O)cc4CC[C@H]3[C@@H]1C[C@@H](O)[C@@H]2O [ESTRIOL] | Not Active
CN1CCC(=C2c3ccccc3CC(=O)c3sccc32)CC1 [KETOTIFEN] | Not Active

The molecules below were run against Acetylcholinesterase (Homo sapiens, UniProt P22303) (assay: DRUGMATRIX: Acetylcholinesterase enzyme inhibition (substrate: acetylthiocholine)). Conditions: hek293; Not Active = under 50% inhibition at 10 µM.
Acetylcholinesterase, sequence (P22303 whole entry): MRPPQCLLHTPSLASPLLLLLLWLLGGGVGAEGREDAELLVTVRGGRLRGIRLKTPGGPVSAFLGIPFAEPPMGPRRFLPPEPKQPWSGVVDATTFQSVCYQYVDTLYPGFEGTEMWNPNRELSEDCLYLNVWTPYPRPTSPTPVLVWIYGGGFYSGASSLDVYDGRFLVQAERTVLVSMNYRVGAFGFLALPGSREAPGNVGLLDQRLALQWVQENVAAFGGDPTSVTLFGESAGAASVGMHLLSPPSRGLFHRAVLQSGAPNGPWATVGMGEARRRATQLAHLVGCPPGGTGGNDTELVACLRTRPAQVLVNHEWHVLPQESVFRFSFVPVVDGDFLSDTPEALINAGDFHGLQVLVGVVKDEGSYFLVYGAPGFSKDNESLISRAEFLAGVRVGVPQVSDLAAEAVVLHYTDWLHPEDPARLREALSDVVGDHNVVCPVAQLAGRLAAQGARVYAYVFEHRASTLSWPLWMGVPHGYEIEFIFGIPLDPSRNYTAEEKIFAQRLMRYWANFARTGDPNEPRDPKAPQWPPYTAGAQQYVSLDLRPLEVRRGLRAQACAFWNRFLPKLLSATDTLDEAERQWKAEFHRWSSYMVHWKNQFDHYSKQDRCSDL
Assay type: cell-based, HEK293

SMILES | IC50
COc1cccc2c1C(=O)c1c(O)c3c(c(O)c1C2=O)C[C@@](O)(C(C)=O)C[C@@H]3O[C@H]1C[C@H](N)[C@H](O)[C@H](C)O1 [DAUNORUBICIN] | Not Active
O=C(O)c1cc(-c2ccc(F)cc2F)ccc1O [DIFLUNISAL] | Not Active
C[S+](C)[O-] [DIMETHYL SULFOXIDE] | Not Active
CC1=NN(c2ccccc2)C(=O)C1 [EDARAVONE] | Not Active
CC(C)C[C@H]1C(=O)N2CCC[C@H]2[C@]2(O)O[C@](NC(=O)[C@@H]3C=C4c5cccc6[nH]cc(c56)C[C@H]4N(C)C3)(C(C)C)C(=O)N12 [ERGOCRYPTINE] | Not Active
C[C@]12CC[C@@H]3c4ccc(O)cc4CC[C@H]3[C@@H]1C[C@@H](O)[C@@H]2O [ESTRIOL] | Not Active
CN1CCC(=C2c3ccccc3CC(=O)c3sccc32)CC1 [KETOTIFEN] | Not Active

Each molecule was assayed against T1, Alpha-2C adrenergic receptor (Homo sapiens, UniProt P18825) (assay: DRUGMATRIX: Adrenergic Alpha-2C radioligand binding (ligand: [3H] MK-912)). Conditions: read-out: IC50.
T1 sequence (P18825 whole entry): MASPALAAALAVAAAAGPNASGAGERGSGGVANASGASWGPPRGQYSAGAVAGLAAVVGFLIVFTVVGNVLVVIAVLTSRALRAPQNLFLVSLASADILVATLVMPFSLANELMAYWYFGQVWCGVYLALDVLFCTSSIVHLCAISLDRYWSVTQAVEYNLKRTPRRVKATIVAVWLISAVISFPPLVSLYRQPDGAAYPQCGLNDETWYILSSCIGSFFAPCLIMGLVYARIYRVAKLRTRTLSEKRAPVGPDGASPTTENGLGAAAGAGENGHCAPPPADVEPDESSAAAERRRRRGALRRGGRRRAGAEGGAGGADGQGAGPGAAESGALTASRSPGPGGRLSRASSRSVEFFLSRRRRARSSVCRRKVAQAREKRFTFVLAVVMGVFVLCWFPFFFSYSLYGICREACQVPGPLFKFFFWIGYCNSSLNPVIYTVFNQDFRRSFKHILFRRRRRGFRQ
Assay type: cell membranes, Sf9, Membrane

SMILES | IC50
CC(C)C[C@H]1C(=O)N2CCC[C@H]2[C@]2(O)O[C@](NC(=O)[C@@H]3C=C4c5cccc6[nH]cc(c56)C[C@H]4N(C)C3)(C(C)C)C(=O)N12 [ERGOCRYPTINE] | 38 nM

Same assay, conditions: read-out: Ki

SMILES | Ki
CC(C)C[C@H]1C(=O)N2CCC[C@H]2[C@]2(O)O[C@](NC(=O)[C@@H]3C=C4c5cccc6[nH]cc(c56)C[C@H]4N(C)C3)(C(C)C)C(=O)N12 [ERGOCRYPTINE] | 5.48 nM

Same assay, conditions: sf9

SMILES | IC50
COc1cccc2c1C(=O)c1c(O)c3c(c(O)c1C2=O)C[C@@](O)(C(C)=O)C[C@@H]3O[C@H]1C[C@H](N)[C@H](O)[C@H](C)O1 [DAUNORUBICIN] | Not Active
O=C(O)c1cc(-c2ccc(F)cc2F)ccc1O [DIFLUNISAL] | Not Active
C[S+](C)[O-] [DIMETHYL SULFOXIDE] | Not Active
CC1=NN(c2ccccc2)C(=O)C1 [EDARAVONE] | Not Active
C[C@]12CC[C@@H]3c4ccc(O)cc4CC[C@H]3[C@@H]1C[C@@H](O)[C@@H]2O [ESTRIOL] | Not Active
CN1CCC(=C2c3ccccc3CC(=O)c3sccc32)CC1 [KETOTIFEN] | Not Active

These molecules were tested against T2, Cathepsin G (Homo sapiens, UniProt P08311). Conditions: neutrophil.
T2 sequence (P08311 whole entry): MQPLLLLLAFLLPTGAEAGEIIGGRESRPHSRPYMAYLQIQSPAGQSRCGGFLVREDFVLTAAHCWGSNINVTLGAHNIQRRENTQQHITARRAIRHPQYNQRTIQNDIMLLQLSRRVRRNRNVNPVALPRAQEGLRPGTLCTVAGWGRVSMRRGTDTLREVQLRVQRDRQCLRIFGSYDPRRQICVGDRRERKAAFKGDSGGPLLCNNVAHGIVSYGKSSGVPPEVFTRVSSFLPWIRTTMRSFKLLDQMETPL
Assay type: tissue-based

SMILES | IC50
COc1cccc2c1C(=O)c1c(O)c3c(c(O)c1C2=O)C[C@@](O)(C(C)=O)C[C@@H]3O[C@H]1C[C@H](N)[C@H](O)[C@H](C)O1 [DAUNORUBICIN] | Not Active
O=C(O)c1cc(-c2ccc(F)cc2F)ccc1O [DIFLUNISAL] | Not Active
C[S+](C)[O-] [DIMETHYL SULFOXIDE] | Not Active
CC1=NN(c2ccccc2)C(=O)C1 [EDARAVONE] | Not Active
CC(C)C[C@H]1C(=O)N2CCC[C@H]2[C@]2(O)O[C@](NC(=O)[C@@H]3C=C4c5cccc6[nH]cc(c56)C[C@H]4N(C)C3)(C(C)C)C(=O)N12 [ERGOCRYPTINE] | Not Active
C[C@]12CC[C@@H]3c4ccc(O)cc4CC[C@H]3[C@@H]1C[C@@H](O)[C@@H]2O [ESTRIOL] | Not Active
CN1CCC(=C2c3ccccc3CC(=O)c3sccc32)CC1 [KETOTIFEN] | Not Active

The molecules below were run against T3, Cholecystokinin receptor type A (Homo sapiens, UniProt P32238). Conditions: 1321-n1.
T3 sequence (P32238 whole entry): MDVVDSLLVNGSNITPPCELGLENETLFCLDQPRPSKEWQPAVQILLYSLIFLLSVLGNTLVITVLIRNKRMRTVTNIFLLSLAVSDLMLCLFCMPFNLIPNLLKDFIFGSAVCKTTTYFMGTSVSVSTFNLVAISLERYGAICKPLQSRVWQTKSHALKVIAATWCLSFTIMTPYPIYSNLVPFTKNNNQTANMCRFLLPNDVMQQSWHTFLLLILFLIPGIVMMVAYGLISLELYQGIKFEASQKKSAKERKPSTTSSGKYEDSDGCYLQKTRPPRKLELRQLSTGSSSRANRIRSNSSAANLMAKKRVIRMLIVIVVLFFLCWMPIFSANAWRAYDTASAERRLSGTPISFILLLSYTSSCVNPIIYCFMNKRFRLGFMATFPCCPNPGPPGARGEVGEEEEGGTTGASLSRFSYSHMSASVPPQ
Assay type: cell membranes, Membrane

SMILES | IC50
COc1cccc2c1C(=O)c1c(O)c3c(c(O)c1C2=O)C[C@@](O)(C(C)=O)C[C@@H]3O[C@H]1C[C@H](N)[C@H](O)[C@H](C)O1 [DAUNORUBICIN] | Not Active
O=C(O)c1cc(-c2ccc(F)cc2F)ccc1O [DIFLUNISAL] | Not Active
C[S+](C)[O-] [DIMETHYL SULFOXIDE] | Not Active
CC1=NN(c2ccccc2)C(=O)C1 [EDARAVONE] | Not Active
CC(C)C[C@H]1C(=O)N2CCC[C@H]2[C@]2(O)O[C@](NC(=O)[C@@H]3C=C4c5cccc6[nH]cc(c56)C[C@H]4N(C)C3)(C(C)C)C(=O)N12 [ERGOCRYPTINE] | Not Active
C[C@]12CC[C@@H]3c4ccc(O)cc4CC[C@H]3[C@@H]1C[C@@H](O)[C@@H]2O [ESTRIOL] | Not Active
CN1CCC(=C2c3ccccc3CC(=O)c3sccc32)CC1 [KETOTIFEN] | Not Active
